This note sets out measurements from ChEMBL document CHEMBL1130564, “The dipeptide neurokinin-1 receptor antagonist S19752 is a potent and long-acting inhibitor of bronchoconstriction when administered by aerosol to the guinea pig in vivo” (Bioorg Med Chem Lett, 1997).

Structures are written as SMILES. Where only a bound is given, the exact number is not on record here.

For experiment [1], the species on record is Cavia porcellus. Briefly: Inhibition of capsaicin-induced plasma extravasation in guinea pig bronchi. In kind it is functional.
The subject of experiment [2] is Cavia porcellus. The experiment is described as follows: Tested for the ability to inhibit substance P induced bronchoconstriction in guinea pig and the dose that was effective even after 40 minutes of compound administration, was reported. Format: functional.
Experiment [3] deals with Cavia porcellus. Briefly: Tested for the ability to inhibit substance P induced bronchoconstriction, in guinea pig, after intravenous administration. The inhibitory dose at 3 minutes, was reported. In kind it is functional. To be noted: 0.05 h, read-out: ID50 (the source's name).
Experiment [4] concerns the target T1, Substance-K receptor (Homo sapiens, UniProt P21452).
T1 sequence (P21452 whole entry): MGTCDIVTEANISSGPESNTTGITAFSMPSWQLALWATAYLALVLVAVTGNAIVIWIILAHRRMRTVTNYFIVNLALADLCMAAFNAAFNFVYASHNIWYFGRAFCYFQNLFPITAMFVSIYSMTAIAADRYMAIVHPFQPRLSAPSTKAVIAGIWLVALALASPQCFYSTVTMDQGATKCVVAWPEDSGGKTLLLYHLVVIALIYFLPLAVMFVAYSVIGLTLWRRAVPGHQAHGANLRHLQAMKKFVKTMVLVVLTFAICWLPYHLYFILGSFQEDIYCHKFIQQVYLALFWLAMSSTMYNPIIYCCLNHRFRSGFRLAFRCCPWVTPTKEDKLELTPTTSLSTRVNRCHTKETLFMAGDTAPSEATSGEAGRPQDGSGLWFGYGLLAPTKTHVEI
The experiment is described as follows: Binding affinity for NK-2 receptor was determined in a radioligand binding assay using chinese hamster ovary cells. Format: cell-based.

Another experiment concerns the target Substance-P receptor (Homo sapiens, UniProt P25103). The experiment is described as follows: Binding affinity for NK-1 receptor was determined in a radioligand binding assay using IM9 human lymphoblastoma cell line.
The target of experiment [5] is T2, Substance-K receptor (Oryctolagus cuniculus, UniProt P79218).
T2 sequence (P79218 whole entry): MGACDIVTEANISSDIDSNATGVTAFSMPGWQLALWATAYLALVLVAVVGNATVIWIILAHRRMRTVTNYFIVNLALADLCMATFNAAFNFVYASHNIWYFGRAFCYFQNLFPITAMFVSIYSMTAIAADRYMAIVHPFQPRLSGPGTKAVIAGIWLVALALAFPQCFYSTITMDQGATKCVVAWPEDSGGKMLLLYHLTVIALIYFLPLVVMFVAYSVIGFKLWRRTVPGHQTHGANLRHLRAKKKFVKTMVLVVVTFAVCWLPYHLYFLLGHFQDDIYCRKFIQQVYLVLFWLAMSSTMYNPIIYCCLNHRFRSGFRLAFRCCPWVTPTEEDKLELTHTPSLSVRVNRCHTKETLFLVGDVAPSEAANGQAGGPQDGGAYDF
The experiment is described as follows: […] for NK-2 receptor was determined in vitro using isolated rabbit pulmonary artery.

In experiment [6] the target is T3, Neuromedin-K receptor (Rattus norvegicus, UniProt P16177).
T3 sequence (P16177 whole entry): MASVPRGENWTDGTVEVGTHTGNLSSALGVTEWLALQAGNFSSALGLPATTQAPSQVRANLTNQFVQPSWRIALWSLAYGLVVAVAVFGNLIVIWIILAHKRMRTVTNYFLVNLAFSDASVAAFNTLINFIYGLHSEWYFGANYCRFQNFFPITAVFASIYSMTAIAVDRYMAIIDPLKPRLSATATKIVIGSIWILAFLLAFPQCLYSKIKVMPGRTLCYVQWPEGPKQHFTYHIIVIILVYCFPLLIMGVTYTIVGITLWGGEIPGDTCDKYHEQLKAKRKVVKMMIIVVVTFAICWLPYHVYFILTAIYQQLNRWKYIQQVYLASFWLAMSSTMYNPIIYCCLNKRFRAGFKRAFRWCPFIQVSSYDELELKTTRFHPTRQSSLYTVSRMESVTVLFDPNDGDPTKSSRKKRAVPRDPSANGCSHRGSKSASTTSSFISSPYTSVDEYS
Briefly: […] for NK-3 receptor was determined in vitro using isolated rat portal vein.

Experiment [7] addresses T2, Substance-K receptor. Briefly: Antagonistic potency for NK-2 receptor was determined in vitro, using isolated rabbit pulmonary artery. In kind it is functional. Conditions: read-out: pA2 (converted).
For experiment [8], the target named is T3, Neuromedin-K receptor. Briefly: Antagonistic potency for NK-3 receptor was determined in vitro, using isolated rat portal vein. In kind it is functional. To be noted: read-out: pA2 (converted).

Chain of Substance-P receptor (P25103 whole entry): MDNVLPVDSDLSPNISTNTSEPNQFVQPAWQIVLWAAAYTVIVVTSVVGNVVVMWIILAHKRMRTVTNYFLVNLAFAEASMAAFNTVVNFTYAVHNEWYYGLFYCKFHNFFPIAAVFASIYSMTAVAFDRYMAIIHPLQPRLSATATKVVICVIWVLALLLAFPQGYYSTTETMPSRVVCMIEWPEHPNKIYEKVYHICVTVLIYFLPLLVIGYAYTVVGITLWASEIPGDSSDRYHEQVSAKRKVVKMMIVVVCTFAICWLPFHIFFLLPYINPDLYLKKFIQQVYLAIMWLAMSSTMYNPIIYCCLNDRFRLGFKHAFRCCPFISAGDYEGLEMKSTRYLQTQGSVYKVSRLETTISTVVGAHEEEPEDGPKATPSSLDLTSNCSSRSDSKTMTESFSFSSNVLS

In the case of `O=C(OCc1cc(C(F)(F)F)cc(C(F)(F)F)c1)[C@H](Cc1c[nH]c2ccccc12)NC(=O)[C@H]1C[C@H](O)CN1C(=O)c1cn(CCCCc2nnn[n-]2)c2ccccc12.[K+]`, the Effective dose in the experiment listed under Cavia porcellus [1] is 0.026 mg/kg; in the experiment with Cavia porcellus [2], 0.5 mM. In the experiment with Cavia porcellus [3], the ED50 worked out at 0.05 µmol/kg. Besides, the Ki on Substance-K receptor [4] was found to be 4.2 µM; on Substance-P receptor, 0.0024 µM. For the same compound, the pA2 was 5.2 on Substance-K receptor [5] and 5.5 at Neuromedin-K receptor [6].
`CC(=O)N[C@@H](Cc1c[nH]c2ccccc12)C(=O)OCc1cc(C(F)(F)F)cc(C(F)(F)F)c1` [L-732138]: the Kb at Substance-K receptor [7] and at Neuromedin-K receptor [8] was 6.31 µM in each case.
For `COc1ccccc1CN[C@H]1CCCN[C@H]1c1ccccc1` [CP-99994], in the experiment filed under Cavia porcellus [1] (read-out: ID50 (the source's name)), the ED50 worked out at 0.014 mg/kg. Besides, the Kb at Substance-K receptor [7] and at Neuromedin-K receptor [8] was more than 100 µM in each case.
For the compound `CN(Cc1ccccc1)C(=O)[C@H](Cc1ccc2ccccc2c1)NC(=O)[C@H]1C[C@H](O)CN1C(=O)c1cn(CCCCc2nnn[nH]2)c2ccccc12`, the Ki at Substance-K receptor [4] stood at 2.4 µM. Besides, the values for the pA2 on Substance-K receptor [5] and at Neuromedin-K receptor [6] were 5.6 and 5, respectively.
